This data set deals with Kunming breed mice. As to the kind of experiment: Toxicity test after intraperitoneal administration to mice. The format is in vivo. The following applies: ip.; for Organ abnormality at anatomy: anatomy on the 14 th day; for Mental condition of the animals after administration: high and low doses; for Deaths after administration: high and low doses (BFA effective amount conversion), 14 d. On the procedure: Objective: Observation of toxic effects of compounds after intraperitoneally administration (ip.) to mice
1) Agents: Compounds disclosed herein were formulated to a suitable concentration.
2) Animals: Kunming breed mice, weight 18-22 g, male. Provided by Jinan Pengyue Laboratory Animal Breeding Co., Ltd. Animal license number: SCXK (Shandong 20140007)
Method: Kunming breed mice, were randomly grouped by weight, 6 mice per group, namely normal control group, BFA high and low dose groups (100 mg/kg and 50 mg/kg, respectively), and high and low dose groups of some compounds disclosed herein (BFA effective amount conversion). […] After 14 d of continuous administration, all the animals were weighed, and the animals were executed to observe whether there were any abnormalities in the organs.

For `C[C@H]1CCC/C=C/[C@@H]2C[C@H](OC(=O)/C=C/c3cccnc3)C[C@H]2[C@H](OC(=O)/C=C/c2cccnc2)/C=C/C(=O)O1` [Compound 16c], the “Organ abnormality at anatomy” value is given as “no significant abnormality in all organs”, the “Mental condition of the animals after administration” value (“Mental condition of the animals” for short) was “good mental condition” and the Deaths after administration entry is “no deaths”.

Turning to `C[C@H]1CCC/C=C/[C@@H]2C[C@H](OC(=O)/C=C/c3ccc(N(C)C)cc3)C[C@H]2[C@H](OC(=O)/C=C/c2ccc(N(C)C)cc2)/C=C/C(=O)O1` [Compound 10c, 4,7-O-bis(4-dimethylaminocinnamic acid)acyl BFA], the “Organ abnormality at anatomy” value is “no significant abnormality in all organs”, the “Mental condition of the animals” value is on record as “good mental condition” and the Deaths after administration result is “no deaths”.

Consider `C[C@H]1CCC/C=C/[C@@H]2C[C@H](OC(=O)/C=C/c3cccc(F)c3)C[C@H]2[C@H](O)/C=C/C(=O)O1` [Compound 1a, 7-O-(3-fluorocinnamic acid)acyl BFA], for which the “Organ abnormality at anatomy” value was “no significant abnormality in all organs”, the “Mental condition of the animals” value is given as “good mental condition” and the Deaths after administration result was “no deaths”.

Turning to `C[C@H]1CCC/C=C/[C@@H]2C[C@H](O)C[C@H]2[C@H](OC(=O)/C=C/c2cccnc2)/C=C/C(=O)O1` [Compound 16b], the “Organ abnormality at anatomy” value was “no significant abnormality in all organs”, the “Mental condition of the animals” value is “good mental condition” and the Deaths after administration result was “no deaths”.

For the compound `C[C@H]1CCC/C=C/[C@@H]2C[C@H](OC(=O)/C=C/c3cccc(F)c3)C[C@H]2[C@H](OC(=O)/C=C/c2cccc(F)c2)/C=C/C(=O)O1` [Compound 1c, 4,7-O-bis(3-fluorocinnamic acid)acyl BFA], the “Organ abnormality at anatomy” value is recorded as “no significant abnormality in all organs”, the “Mental condition of the animals” value is on record as “good mental condition” and the Deaths after administration entry was “no deaths”.

Regarding `C[C@H]1CCC/C=C/[C@@H]2C[C@H](O)C[C@H]2[C@H](OC(=O)/C=C/c2cccc(F)c2)/C=C/C(=O)O1` [Compound 1b, 4-O-(3-fluorocinnamic acid)acyl BFA], the “Organ abnormality at anatomy” value is “no significant abnormality in all organs”, the “Mental condition of the animals” value was “good mental condition” and the Deaths after administration result is recorded as “no deaths”.

On to `C[C@H]1CCC/C=C/[C@@H]2C[C@H](OC(=O)/C=C/c3ccc(N(C)C)cc3)C[C@H]2[C@H](O)/C=C/C(=O)O1` [Compound 10a, 7-O-(4-dimethylaminocinnamic acid)acyl BFA], for which the “Organ abnormality at anatomy” value is reported as “no significant abnormality in all organs”, the “Mental condition of the animals” value is recorded as “good mental condition” and the Deaths after administration result is given as “no deaths”.

Regarding `C[C@H]1CCC/C=C/[C@@H]2C[C@H](O)C[C@H]2[C@H](OC(=O)/C=C/c2ccc(N(C)C)cc2)/C=C/C(=O)O1` [Compound 10b, 4-O-(4-dimethylaminocinnamic acid)acyl BFA], the “Organ abnormality at anatomy” value is given as “no significant abnormality in all organs”, the “Mental condition of the animals” value is “good mental condition” and the Deaths after administration entry is given as “no deaths”.

With `C[C@H]1CCC/C=C/[C@@H]2C[C@H](OC(=O)/C=C/c3cccnc3)C[C@H]2[C@H](O)/C=C/C(=O)O1` [Compound 16a, 7-O-(3-(pyridine-3-yl)acrylic acid)acyl BFA], the “Organ abnormality at anatomy” value is recorded as “no significant abnormality in all organs”, the “Mental condition of the animals” value was “good mental condition” and the Deaths after administration entry was “no deaths”.

Values taken from patent publication US12577219B2, “Macrolide brefeldin a ester derivatives and use thereof” (OCEAN UNIVERSITY OF CHINA, priority 2019, dated 2026).
